Data published in US7078411B2, “Phospholipid transfer protein (PLTP) and cholestoral metabolism” (priority 2001, dated 2006).
“Also recorded” adds a separate entry of the source.

Assays:
[1] = test system: cultured tumor cell lines; details: Table 1
Text: To determine whether the induction of PLTP expression is topotecan specific, we evaluated the effects of camptothecin and some of its derivatives, and compared them against some protoberberines, which are a new class of organic cations that are dual poisons of topoisomerases I and II (3–5). Berberine is an isoquinoline plant alkaloid.

PLTP expression = test: Northern blot analysis of PLTP expression in HepG2 cells; format: cell-based, human; details: for induction of PLTP expression: 500 nM, 24 hrs (FIG. 5)
Protocol: Dose response induction of PLTP was performed in HepG2 cells for 24 hrs. RNAs isolated were separated on agarose gel and then transferred to nitrocellulose filters for hybridization with a labeled full-length PLTP cDNA probe. […] Lane 1, control (untreated); 2, 1 nM; 3, 20 nM; 4, 100 nM; 5, 500 nM; and 6, 1,000 nM topotecan expression. […] This may be a result of the inhibition of transcription by topotecan at the higher dosage.
HepG2 cells were treated with the indicated drugs (500 nM) for 24 hrs. RNAs were then harvested and fractionated on agarose gel and then transferred to nitrocellulose filters for hybridization with a full length PLTP cDNA probe.
We first examined topotecan-induced PLTP expression in an independent dose response study by Northern blot analysis. […] This may be a result of the inhibition of transcription by topotecan at the higher dosage. […]

PLTP promoter [2] = format: cell-based, human; details: HepG2/PLTPpLuc; for specificity of induction of PLTP promoter activity: 24 hours (FIG. 14)
Text: FIG. 11 is a schematic drawing of the promoter of the phospholipid transfer protein (PLTP) gene. A 1.6 kb fragment of the PLTP gene promoter derived from a BAC clone was PCR amplified and then subcloned into a modified pXP1 luciferase reporter plasmid vector. The modified vector contained the neomycin resistance marker gene.
HepG2 cells were permanently transfected with the construct shown in FIG. 11, and selected for resistance to G418, an aminoglycoside antibiotic. Clone 1, a G418 resistant cell line isolated from the selection, designated HepG2/PLTPpLuc, was utilized for testing the effect of topotecan on induction of PLTP promoter activity. The transfectant cell line, HepG2/PLTPpLuc, was treated with topotecan (500 nM) for approximately 24 hours. Cell extracts were obtained at the end of incubation and the luciferase assay was performed with them. The luciferase activity of the topotecan treated cells (+) was plotted relative to the control (−).
FIG. 13 illustrates the time course analysis of induction of PLTP promoter activity by topotecan in HepG2/PLTPpLuc cells. The HepG2/PLTPpLuc cells were treated with 500 nM of topotecan. Cell extracts were obtained at various time points following treatment with topotecan (0, 4, 8, 12, 16, and 24 hours) and assayed for luciferase activity, which was plotted as a function of time.
The HepG2/PLTPpLuc cells were treated with either topotecan, taxol, or melphalan for 24 hours. Cell extracts were then obtained for the luciferase assay.
The luciferase reporter plasmid was constructed by cloning the PLTP promoter derived from a BAC clone into the pXP2 luciferase reporter vector. A neomycin selectable marker gene driven by the CMV early promoter was further subcloned into the PLTP-luciferase reporter plasmid (FIG. 11).
Approximately 10 μg of the PLTP-luciferase reporter plasmid was transfected using lipofectamine into HepG2 cells for about 4 hrs. Cells were washed and then further cultured and selected in the presence of 1.6 mg/ml of G418 for neomycin resistance. Media were changed every 3 days with fresh G418 added at the above concentration. Approximately 14 days later, colonies that emerged from the selection were picked using cloning cylinders and the clones were transferred to 24-well cluster dishes for further culturing and selection.
At confluence, cells were next transferred to 12-well dishes and aliquots were also transferred to 24-well dishes for screening with topotecan for induction of the PLTP promoter activity. Luciferase assay was performed using a standard luciferase assay kit from Promega.

[3] = test system: phospholipid transfer protein (PLTP) gene; test: DNA microarray expression profiling of topotecan-treated HepG2 cells; format: cell-based, human
Protocol: (§1) FIG. 1 is a DNA microarray presenting expression profiling of topotecan induced HepG2 cells. HepG2 cells were treated with 500 nM of topotecan in time course study for the indicated time points in the figure. RNAs were isolated, labeled and hybridized to the array. Scan image were analyzed using the Pathway and the Cluster softwares. The results of cluster analysis are shown in TreeView. Transition of color to red indicates the upregulation, and to green is the downregulation of gene expression.
FIG. 2 is a scanned image of the PLTP gene induced by topotecan. HepG2 cells were treated with topotecan in time-course and dose response studies. The microarrays were exposed to phosphorimage screen and the scanned images were analyzed with the Pathway software. Enlarged scanned images for the induction of PLTP gene with time and dose are shown.
as §1, with “3” for “1”, “various concentrations” for “500 nM”, “topotecan.” for “topotecan in time course study for the indicated time points in the figure.”, “images” for “image”, “TreeView. A representative set of genes with altered expression was plotted in the line graphs.” for “TreeView.”
We have used DNA microarray to monitor the expression profiles of cells in response to anticancer drug treatments, and also comparing these profiles to those obtained from cancer cells that have been selected for resistance to the corresponding agents. […]
The HepG2 cells were either transiently treated with 500 nM of topotecan for various times (1–24 hrs), or with various doses of topotecan (1–1000 nM) for 24 hrs. […] The scanned images were processed and analyzed on the Pathways™ software. Tab delimited files generated from Pathways™ were imported into Microsoft Excel® for sorting by fold changes and intensity levels (radioactivity, cpm).

PLTP promoter [4] = test: PLTP promoter-luciferase reporter, transient transfection in HepG2 cells (dual luciferase assay); format: cell-based, human; details: 24 hrs
Protocol: FIGS. 6A and 6B depict the transactivation of the PLTP promoter by topotecan. FIG. 6A is a schematic drawing of the PLTP gene promoter-luciferase reporter construct. The promoter was PCR amplified from a BAC clone containing the genomic sequence for the human PLTP gene. FIG. 6B graphically presents the results calibrated in terms of luciferase activity, of a study where HepG2 cells were transfected with the PLTP promoter-luciferase reporter and were then treated with various doses of topotecan for 24 hrs. Cell extracts were harvested for the dual luciferase assay (Promega, Wis.). The relative luciferase activity has been normalized with the internal control renella luciferase activity cotransfected with the promoter reporter construct, to monitor transfection efficiency.
We also determined whether induction of PLTP gene expression by topotecan is transcriptionally activated. Approximately 1.5 kb of the PLTP promoter sequence was obtained by the polymerase chain reaction (PCR) amplification of a human BAC clone (RP3-337018) containing the genomic sequence of PLTP. The PCR product consisting of the promoter region was sequenced verified and then subcloned into a luciferase reporter vector pGL2-Basic vector (Promega, Wis.) (FIG. 6A). […]

Row | SMILES | Cytotoxicity [1] | induction of PLTP expression (PLTP expression) | specificity of induction of PLTP promoter activity (PLTP promoter [2]) | other results
1 | CCC1(O)C(=O)OCc2c1cc1n(c2=O)Cc2cc3c(N)c4c(cc3nc2-1)OCO4 [9-NH2-10,11-MD-CPT(R)] | Inactive |  |  | 
2 | CCC1(O)C(=O)OCc2c1cc1n(c2=O)Cc2cc3c(N)c4c(cc3nc2-1)OCO4 [9-NH2-10,11-MD-CPT(S)] | Active | induced |  | 
3 | CC[C@@]1(O)C(=O)OCc2c1cc1n(c2=O)Cc2cc3c(N)cccc3nc2-1 [9-NH2-CPT(S)] | Active | induced |  | 
4 | CC[C@@]1(O)C(=O)OCc2c1cc1n(c2=O)Cc2cc3ccccc3nc2-1 [Camptothecin (CPT), Camptothecin] | Active | induced |  | 
5 | CCc1c2c(nc3ccc(OC(=O)N4CCC(N5CCCCC5)CC4)cc13)-c1cc3c(c(=O)n1C2)COC(=O)[C@]3(O)CC [Irinotecan (CPT-11), Irinotecan] |  | failed to activate PLTP expression |  | 
6 | N[C@@H](Cc1ccc(N(CCCl)CCCl)cc1)C(=O)O [melphalan] |  |  | no significant stimulation | 
7 | CC(=O)O[C@H]1C(=O)[C@@]2(C)[C@H]([C@H](OC(=O)c3ccccc3)[C@]3(O)C[C@H](OC(=O)[C@H](O)[C@@H](NC(=O)c4ccccc4)c4ccccc4)C(C)=C1C3(C)C)[C@]1(OC(C)=O)CO[C@@H]1C[C@@H]2O [taxol] |  |  | no significant stimulation | 
8 | CC[C@@]1(O)C(=O)OCc2c1cc1n(c2=O)Cc2cc3c(CN(C)C)c(O)ccc3nc2-1 [topotecan] |  | induced | specific for topotecan | induction of PLTP gene expression ([3]; 500 nM topotecan, after 24 hrs of exposure): approximately 20 fold; onset of PLTP expression after exposure ([3]; 500 nM topotecan, time course): 10 to 15 h; induction of PLTP expression, dose response ([3]; 1–1000 nM, 24 hrs): elevated in a dose dependent manner; PLTP expression at the highest dose (PLTP expression; 1 μM, 24 hrs): reversed; induction of PLTP expression, dose response (PLTP expression; 1–1000 nM, 24 hrs): dose dependent induction; also recorded: elevated with increasing doses; PLTP promoter activity at the highest dose (PLTP promoter [4]; 1 μM): inhibition of the promoter activity; transactivation of PLTP promoter, dose response (PLTP promoter [4]; various doses): transactivated by topotecan dose-dependently; induction of PLTP promoter activity (PLTP promoter [2]; 500 nM, approximately 24 hours (FIG. 12)): approximately 20 fold
9 | CC[C@]1(O)C[C@@H]2CN(CCc3c([nH]c4ccccc34)[C@@](C(=O)OC)(c3cc4c(cc3OC)N(C)[C@H]3[C@@](O)(C(=O)OC)[C@H](OC(C)=O)[C@]5(CC)C=CCN6CC[C@]43[C@@H]65)C2)C1 [vinblastine] |  | failed to induced PLTP gene expression; also recorded: did not induce PLTP expression |  | 
